Data on 2 compounds can be found in US12653858B2, “Herbal composition, preparation method thereof and method for preventing or treating respiratory disorder by administering the same” (priority 2021, dated 2026).

The test system of one experiment is ACE2. The experiment can be described thus: ACE2 degradation in WI-38 cells (cycloheximide time course, BafA1 lysosome inhibition). In kind it is cell-based, human. The conditions noted are these: WI-38 cells pretreated with BafA1 10 μM 30 min, then JGF 10 μg/mL 2 h. How it is done:
Actin was used as the internal control. […] Actin was used as the internal control.
For example, it was examined whether JGF-induced ACE2 degradation is dependent on proteasome or lysosomal systems. Initially, the half-life of ACE2 in WI-38 cells was analyzed following treatment with cycloheximide (CHX), which is a ribosome inhibitor that blocks protein synthesis.

The test system of experiment [1] is SARS-CoV-2 S-mediated membrane fusion. In words: SARS-CoV-2 spike-mediated cell-cell fusion (syncytium formation) assay. It is filed as cell-based.

On to `CO/C1=C\C(C)=C\[C@@H](C)[C@@H](O)[C@@H](C)C/C(C)=C/C=C/[C@H](OC)[C@@H]([C@@H](C)[C@@H](O)[C@H](C)[C@@]2(O)C[C@@H](O)[C@H](C)[C@@H](C(C)C)O2)OC1=O` [BafA1], for which the “ACE2 level after JGF treatment with lysosome inhibitor” value in the experiment on ACE2 is given as “recovered the ACE2 level”. With `CN(C)C(=O)COC(=O)Cc1ccc(OC(=O)c2ccc(NC(=N)N)cc2)cc1` [camostat], the Formation of syncytium result in experiment [1] was “inhibition of syncytium formation”.
